These results are taken from ChEMBL document CHEMBL5727173, “Phenyl-(aza)cycloalkyl carboxylic acid GPR120 modulators” (2019).

In general, EC50 refers to the concentration at which the effect is half-maximal.

The target in the experiment is T1, Free fatty acid receptor 4 (Homo sapiens, UniProt Q5NUL3).
T1 sequence (Q5NUL3 whole entry): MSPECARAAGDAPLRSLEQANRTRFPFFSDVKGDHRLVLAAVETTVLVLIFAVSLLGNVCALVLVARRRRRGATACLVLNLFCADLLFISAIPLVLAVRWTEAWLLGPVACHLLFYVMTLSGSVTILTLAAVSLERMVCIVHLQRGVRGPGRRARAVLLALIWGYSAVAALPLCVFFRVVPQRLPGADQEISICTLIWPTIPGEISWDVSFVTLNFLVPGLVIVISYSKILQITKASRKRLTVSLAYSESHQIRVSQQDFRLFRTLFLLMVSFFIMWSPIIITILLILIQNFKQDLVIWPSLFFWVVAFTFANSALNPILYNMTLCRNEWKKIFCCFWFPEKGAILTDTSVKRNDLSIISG
Briefly: GPR120 pERK AlphaScreen SureFire Assay: The human and mouse GPR120-mediated intracellular phosphorylated ERK assays were also established using CHO-K1 cells stably transfected with the short form of human or mouse GPR120 receptor. Cells were cultured in growth medium consisting of F-12 media (Invitrogen Cat. #11765) with 5% Charcoal/Dextran FBS (Invitrogen Cat. #12676-029) and 500 μg/mL GENETICIN® (Life Technologies Cat. #10131-027). Cells were cryo preserved at a concentration of 3×10^6 cells/mL, in 70% F-12, 20% Charcoal/Dextran FBS and 10% DMSO, and frozen in liquid nitrogen at a low passage number.For the pERK assay, 3×10^6 cells/mL cryopreserved human and mouse cells were thawed rapidly in a 37° C. water bath and added to a T-225 flask containing 50 mL growth medium. The flasks were placed in a tissue culture incubator overnight (37° C., 5% CO2). The next day, cells were harvested with trypsin (Gibco Cat. #25300-054), resuspended in serum-containing growth medium and counted using a Cellometer and volume adjusted to a concentration of 0.5×10^6 cells/mL. Cells were plated into 384-well clear bottom tissue culture plates (BD Cat. #353962) at 50 μL/well, for a density of 25,000 cells/well using a MULTIDROP® and incubated for 16-18 hours (overnight) at 37° C. with 5% CO2. The next day, cells were washed once with 50 μL of PBS without Ca++/Mg++ (Gibco Cat. #14190-036) and serum starved in 25 μL of F-12 media without any serum or antibiotics for 2 hours at 37° C. It counts as cell-based. On the technique in general: In Alpha technology, singlet oxygen from a donor bead excites a nearby acceptor bead.

For the molecule `O=C(O)CCCCc1ccc(N2CCCCC(Oc3ccc(F)cc3)C2)cc1` (stereo not given), the concentration for a half-maximal effect (EC50) came to 3550 nM.
The same measure for `O=C(O)CCCCc1ccc(N2CCCC(Oc3ccccc3)C2)cc1` (stereo not given): 420 nM.
On to `O=C(O)COCCc1ccc(N2CCCC(Oc3ccccc3)C2)cc1` (stereo not given), for which the EC50 worked out at 2420 nM.
On to `O=C(O)CCCCc1ccc(C2CCCC(Nc3ccccc3)C2)cc1` (stereo not given), for which the EC50 is 3030 nM.
To `O=C(O)CCCCc1ccc(N2CCC[C@@H](Oc3ccccc3)C2)cc1` belongs 780 nM.
